One assay deals with p21. Kind of assay: Immunostaining for p21 (percentage of p21-positive cells). The class given is cell-based, human. As for the experimental part:
(§1) Immunofluorescence analyses were performed as described previously (Carroll et al.). In brief, cells were seeded on coverslips in 24-well plates and fixed in 4% formaldehyde in PBS for 10 min at room temperature followed by permeabilization in 0.5% Triton X-100 (Sigma-Aldrich) in PBS for 4 min at room temperature (Ki67 and p21) or in methanol for 4 min at −20° C. (LC3 and p62). Cells were then blocked for 1 h in 5% normal goat serum (Sigma-Aldrich) in PBS at room temperature and incubated with primary antibodies overnight at 4° C. Cells were washed three times and incubated with the appropriate secondary antibodies for 1 h at room temperature (Thermo Fisher Scientific, A31556 and A21235, 1:1000). Cells were washed, and coverslips were mounted on slides with Prolong Gold antifade mountant with DAPI (Invitrogen). Fluorescence images were obtained as described above. The following primary antibodies were used: rabbit anti-Ki67 (Abcam, ab 15580, 1:250), rabbit anti-p21 (CST, 2947, 1:1000), mouse anti-LC3 (NanoTools, 0260-100, 1:200) and rabbit anti-p62 (MBL, PM045, 1:500).

Assay [1] has as its system human dermal fibroblasts (HDFs). Kind of assay: EdU incorporation assay. The class given is cell-based. Conditions: HDFs from aged donors; 30 μM, 7 h.
The test system of a further assay is Ki67. The assay can be described thus: Immunostaining for Ki67 (percentage of Ki67-positive cells). The class given is cell-based, human. The conditions noted are these: HDFs; 30 μM for 5 h prior to IR; 11 days after IR. The procedure: as §1
The test system of assay [2] is human dermal fibroblasts (HDFs). Kind of assay: Seahorse analysis, ATP production normalized to MitoTracker density. The class given is cell-based. Conditions: HDFs from aged donors; 30 μM, 7 h. As for the experimental part:
The Seahorse XF Cell Mito Stress Test Kit (Agilent) was used to measure oxygen consumption rates in adult dermal fibroblasts. One day prior to the assay cells were seeded at either 4000 per well or 3000 per well. Where indicated, fibroblast plates were subjected to 20Gy IR 2 h before assay. STOCKIN ([…]) or vehicle (DMSO) treatments were performed 7 h before Seahorse assays. HDFs were stained with 100 nM Mitotracker Green for mitochondrial density measurement. The Mito Stress Test was performed as per manufacturer's guidelines on a Seahorse XF96 Extracellular Flux analyser using previously optimized conditions. Following assay completion, cells were fixed in 4% PFA for 20 minutes. PFA was then removed, and cells were washed twice with PBS. Following fixation, cells were stained with Hoescht nucleic acid stain (Invitrogen) for 10 min before being washed twice in PBS. Fluorescence was subsequently measured using the PHERAstar FSX plate reader (BMG LABTECH) at 350/460 nm for normalization purposes. Following normalization, OCR measurements were interpreted from data generated from the Agilent Seahorse Wave software version 2.6.3.5. Basal respiration data in unstressed conditions is presented. OCR measurements were further normalised to mitochondrial density to obtain ATP production (pmol/min/mitochondria).

Assay [3] shares this test system. Kind of assay: Cell motility assay. The class given is cell-based. The conditions noted are these: HDFs from aged donors; 30 μM, 7 h. The procedure: HDFs were seeded in glass bottomed multiwell plates (Greiner, 662892), 24 h prior to imaging. Images were captured using a Zeiss CellDiscoverer 7 with a 5x/0.35NA lens with a 2× optovar using oblique mode brightfield with a Hamamatsu Fusion camera every 300 seconds for 5 h (1 ms exposure time), capturing 2 random fields per well. Cells were maintained at 37° C., 5% CO2 throughout experiments. 6 cells were analysed per field using the Manual Tracking plugin in FIJI/ImageJ, and shown as mean movement per cell recorded.

For the next assay, the system named is IL-6. The assay can be described thus: SASP assessment, IL-6 mRNA by qPCR. The class given is cell-based, human. As for the experimental part: (§2) Quantibody Human Cytokine Arrays for 20 cytokines (RayBiotech; QAH-CYT-1) were performed using conditioned media collected from primary dermal fibroblasts culture. mRNA levels of human IL-6 and IL-8 were measured by quantitative polymerase chain reaction (qPCR. Total RNA was extracted using RNeasy Mini Kit (QIAGEN, 74104). From 500 ng of total RNA, first-strand complementary DNA (cDNA) was produced using SuperScript III reverse transcriptase (Invitrogen, 18080044). Quantitative PCR was performed in a StepOnePlus Real-Time PCR system (Applied Biosystems) using Power SYBR Green PCR Master Mix (Applied Biosystems, 4367659). mRNA levels were determined with the […] and normalised to GAPDH levels.
On the technique in general: Quantitative PCR measures a nucleic acid by following its amplification.

In a further assay the test system is IL-8. The assay can be described thus: SASP assessment, IL-8 mRNA by qPCR. The class given is cell-based, human. Conditions: HDFs; 30 μM for 5 h prior to IR; 11 days after IR. As for the experimental part: as §2
[4] abbreviates: HDFs from aged donors, 30 μM, 7 h.

On to `CC(=O)Oc1ccc(N2C(=O)C3C(Cc4ccccc4)NC4(C(=O)Nc5c4ccc(Cl)c5C)C3C2=O)cc1` (stereo not drawn) [STOCKIN-57543], for which, in the assay with p21 (setting [4]), the p21 expression entry is listed as “decreasing elevated p21 expression”. In the assay on p21 (HDFs, treatment 5 h prior to IR), the “IR-associated increased p21 expression” value is given as “mitigating IR-associated increased p21 expression”. Besides, the “cellular proliferation capacity (EdU incorporation)” value in assay [1] was “restoring cellular proliferation capacity”. Moreover, the “IR-associated decrease in cellular proliferation capacity (Ki67)” value in the assay on Ki67 was “mitigating IR-associated decrease in cellular proliferation capacity”. Also, the “mitochondrial function (ATP production per cell normalized to MitoTracker density)” value in assay [2] was “restoring”. In addition, the cell motility result in assay [3] is reported as “improving cell motility”. Moreover, in the assay with IL-6 (setting [4]), the “levels of the SASP factor IL-6 (mRNA)” value was “decreasing levels of the SASP factor IL-6”. In addition, the “IR-associated increase in IL-6 level (mRNA)” value with IL-6 (HDFs, 30 μM for 5 h prior to IR, 11 days after IR) was “mitigating IR-associated increases in levels of the SASP factors IL-6 and IL-8”. Also, the “IR-associated increase in IL-8 level (mRNA)” value with IL-8 is “mitigating IR-associated increases in levels of the SASP factors IL-6 and IL-8”.
